# Target: Isoleucine--tRNA ligase (Escherichia coli) (UniProt P00956)
# Test: Inhibition of [3H]isoleucyl incorporation by Escherichia coli isoleucyl-tRNA synthetase (IleRS)
# Sequence of Isoleucine--tRNA ligase (Escherichia coli) (P00956 whole entry, looked up): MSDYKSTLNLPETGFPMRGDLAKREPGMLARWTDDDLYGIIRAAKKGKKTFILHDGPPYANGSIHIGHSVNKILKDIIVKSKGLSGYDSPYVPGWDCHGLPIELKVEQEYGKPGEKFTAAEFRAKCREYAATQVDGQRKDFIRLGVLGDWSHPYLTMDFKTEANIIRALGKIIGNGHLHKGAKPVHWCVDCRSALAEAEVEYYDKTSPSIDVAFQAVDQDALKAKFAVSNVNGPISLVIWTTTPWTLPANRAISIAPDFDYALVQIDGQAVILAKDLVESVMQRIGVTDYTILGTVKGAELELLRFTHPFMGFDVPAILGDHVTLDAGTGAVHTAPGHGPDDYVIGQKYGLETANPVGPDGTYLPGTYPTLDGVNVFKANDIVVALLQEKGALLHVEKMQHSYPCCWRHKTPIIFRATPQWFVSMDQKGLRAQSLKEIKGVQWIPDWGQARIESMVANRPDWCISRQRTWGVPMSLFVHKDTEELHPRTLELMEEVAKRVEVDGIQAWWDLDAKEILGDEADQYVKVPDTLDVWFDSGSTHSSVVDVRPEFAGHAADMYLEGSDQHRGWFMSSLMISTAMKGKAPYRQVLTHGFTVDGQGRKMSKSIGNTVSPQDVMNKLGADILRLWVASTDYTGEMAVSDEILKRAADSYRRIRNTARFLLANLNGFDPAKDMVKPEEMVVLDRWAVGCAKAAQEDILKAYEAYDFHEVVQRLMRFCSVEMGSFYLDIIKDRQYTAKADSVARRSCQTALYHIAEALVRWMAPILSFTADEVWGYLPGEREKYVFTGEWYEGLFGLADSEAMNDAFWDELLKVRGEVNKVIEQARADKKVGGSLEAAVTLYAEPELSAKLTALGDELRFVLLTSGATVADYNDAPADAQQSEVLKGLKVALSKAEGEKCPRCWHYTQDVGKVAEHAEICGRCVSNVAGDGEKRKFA
row,SMILES,IC50
1,"CC[C@H](C)[C@H](N)C(=O)N(O)C[C@H]1O[C@@H](CCn2nnc(-c3ccccc3)n2)[C@H](O)[C@@H]1O [(1S,2S)-1-({(2R,3S,4R,5S)-3,4-Dihydroxy-5-[2-(5-phenyl-tetrazol-2-yl)-ethyl]-tetrahydro-furan-2-ylmethyl}-hydroxy-carbamoyl)-2-methyl-butyl-ammonium]",> 128 µM
2,"CC[C@H](C)[C@H](N)C(=O)N(O)C[C@H]1O[C@@H](CCn2cnc3c(N)ncnc32)[C@H](O)[C@@H]1O [(1S,2S)-1-({(2R,3S,4R,5S)-5-[2-(6-Amino-purin-9-yl)-ethyl]-3,4-dihydroxy-tetrahydro-furan-2-ylmethyl}-hydroxy-carbamoyl)-2-methyl-butyl-ammonium]",> 128 µM
3,"CC[C@H](C)[C@H](N)C(=O)OC[C@H]1O[C@@H](n2cnc3c(N)ncnc32)[C@H](O)[C@@H]1O [(1S,2S)-1-[(2R,3S,4R,5R)-5-(6-Amino-purin-9-yl)-3,4-dihydroxy-tetrahydro-furan-2-ylmethoxycarbonyl]-2-methyl-butyl-ammonium]",183 µM
4,"CC[C@H](C)[C@H](N)C(=O)OC[C@H]1O[C@@H](Cn2cnc3c(N)ncnc32)[C@H](O)[C@@H]1O [(1S,2S)-1-[(2R,3S,4R,5S)-5-(6-Amino-purin-9-ylmethyl)-3,4-dihydroxy-tetrahydro-furan-2-ylmethoxycarbonyl]-2-methyl-butyl-ammonium]",> 128 µM
5,"CC[C@H](C)[C@H](N)C(=O)OC[C@H]1O[C@@H](CCn2nnc(-c3ccccc3)n2)[C@H](O)[C@@H]1O [(1S,2S)-1-{(2R,3S,4R,5S)-3,4-Dihydroxy-5-[2-(5-phenyl-tetrazol-2-yl)-ethyl]-tetrahydro-furan-2-ylmethoxycarbonyl}-2-methyl-butyl-ammonium]",63.6 µM
6,"CC[C@H](C)[C@H](N)C(=O)OC[C@H]1O[C@@H](CCn2cnc3c(N)ncnc32)[C@H](O)[C@@H]1O [(1S,2S)-1-{(2R,3S,4R,5S)-5-[2-(6-Amino-purin-9-yl)-ethyl]-3,4-dihydroxy-tetrahydro-furan-2-ylmethoxycarbonyl}-2-methyl-butyl-ammonium]",> 128 µM
7,"CC[C@H](C)[C@H](N)C(=O)N(O)C[C@H]1O[C@@H](n2cnc3c(N)ncnc32)[C@H](O)[C@@H]1O [(1S,2S)-1-{[(2R,3S,4R,5R)-5-(6-Amino-purin-9-yl)-3,4-dihydroxy-tetrahydro-furan-2-ylmethyl]-hydroxy-carbamoyl}-2-methyl-butyl-ammonium]",181 µM
8,"CC[C@H](C)[C@H](N)C(=O)N(O)C[C@H]1O[C@@H](Cn2cnc3c(N)ncnc32)[C@H](O)[C@@H]1O [(1S,2S)-1-{[(2R,3S,4R,5S)-5-(6-Amino-purin-9-ylmethyl)-3,4-dihydroxy-tetrahydro-furan-2-ylmethyl]-hydroxy-carbamoyl}-2-methyl-butyl-ammonium]",> 128 µM

# Continued, values first:
row,IC50,SMILES
1,> 128 µM,"CC[C@H](C)[C@H](N)C(=O)N(O)C[C@H]1O[C@@H](CCn2cnc3c(NCc4ccccc4)ncnc32)[C@H](O)[C@@H]1O [(1S,2S)-1-({(2R,3S,4R,5S)-5-[2-(6-Benzylamino-purin-9-yl)-ethyl]-3,4-dihydroxy-tetrahydro-furan-2-ylmethyl}-hydroxy-carbamoyl)-2-methyl-butyl-ammonium]"
2,84 µM,"CC[C@H](C)[C@H](N)C(=O)OC[C@H]1O[C@@H](CCn2cnc3c(NCc4ccccc4)ncnc32)[C@H](O)[C@@H]1O [(1S,2S)-1-{(2R,3S,4R,5S)-5-[2-(6-Benzylamino-purin-9-yl)-ethyl]-3,4-dihydroxy-tetrahydro-furan-2-ylmethoxycarbonyl}-2-methyl-butyl-ammonium]"

# Target: Methionine--tRNA ligase (Escherichia coli) (UniProt P00959)
# Test: Inhibition of [35S]methionyl incorporation by Escherichia coli methionyl-tRNA synthetase (MetRS)
# Sequence of Methionine--tRNA ligase (Escherichia coli) (P00959 whole entry, looked up): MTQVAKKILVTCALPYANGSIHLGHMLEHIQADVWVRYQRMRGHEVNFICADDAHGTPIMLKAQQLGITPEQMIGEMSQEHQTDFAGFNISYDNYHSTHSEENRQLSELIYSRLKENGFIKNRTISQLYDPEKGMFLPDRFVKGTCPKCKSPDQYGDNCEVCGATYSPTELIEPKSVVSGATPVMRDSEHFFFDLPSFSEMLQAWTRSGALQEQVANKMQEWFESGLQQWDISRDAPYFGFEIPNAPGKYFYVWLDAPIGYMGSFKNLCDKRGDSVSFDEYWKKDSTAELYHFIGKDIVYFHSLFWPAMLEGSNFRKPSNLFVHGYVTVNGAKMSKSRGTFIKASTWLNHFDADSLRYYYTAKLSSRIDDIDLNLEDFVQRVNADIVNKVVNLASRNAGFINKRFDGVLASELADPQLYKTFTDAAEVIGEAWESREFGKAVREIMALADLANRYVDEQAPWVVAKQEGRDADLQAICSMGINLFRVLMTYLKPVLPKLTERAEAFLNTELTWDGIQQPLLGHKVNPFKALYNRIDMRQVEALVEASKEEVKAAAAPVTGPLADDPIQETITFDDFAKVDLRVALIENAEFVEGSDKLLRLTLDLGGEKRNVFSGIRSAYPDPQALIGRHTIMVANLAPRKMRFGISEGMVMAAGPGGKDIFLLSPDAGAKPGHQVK
row,SMILES,IC50
1,"CSCC[C@H](N)C(=O)N(O)C[C@H]1O[C@@H](CCn2nnc(-c3ccccc3)n2)[C@H](O)[C@@H]1O [(S)-1-({(2R,3S,4R,5S)-3,4-Dihydroxy-5-[2-(5-phenyl-tetrazol-2-yl)-ethyl]-tetrahydro-furan-2-ylmethyl}-hydroxy-carbamoyl)-3-methylsulfanyl-propyl-ammonium]",34 µM
2,"CSCC[C@H](N)C(=O)OC[C@H]1O[C@@H](n2cnc3c(N)ncnc32)[C@H](O)[C@@H]1O [(S)-1-[(2R,3S,4R,5R)-5-(6-Amino-purin-9-yl)-3,4-dihydroxy-tetrahydro-furan-2-ylmethoxycarbonyl]-3-methylsulfanyl-propyl-ammonium]",5 µM
3,"CSCC[C@H](N)C(=O)OC[C@H]1O[C@@H](Cn2nnc(-c3ccccc3)n2)[C@H](O)[C@@H]1O [(S)-1-[(2R,3S,4R,5S)-3,4-Dihydroxy-5-(5-phenyl-tetrazol-2-ylmethyl)-tetrahydro-furan-2-ylmethoxycarbonyl]-3-methylsulfanyl-propyl-ammonium]",12.2 µM
4,"CSCC[C@H](N)C(=O)N(O)C[C@H]1O[C@@H](n2cnc3c(N)ncnc32)[C@H](O)[C@@H]1O [(S)-1-{[(2R,3S,4R,5R)-5-(6-Amino-purin-9-yl)-3,4-dihydroxy-tetrahydro-furan-2-ylmethyl]-hydroxy-carbamoyl}-3-methylsulfanyl-propyl-ammonium]",27 µM
5,"CSCC[C@H](N)C(=O)N(O)C[C@H]1O[C@@H](Cn2nnc(-c3ccccc3)n2)[C@H](O)[C@@H]1O [(S)-1-{[(2R,3S,4R,5S)-3,4-Dihydroxy-5-(5-phenyl-tetrazol-2-ylmethyl)-tetrahydro-furan-2-ylmethyl]-hydroxy-carbamoyl}-3-methylsulfanyl-propyl-ammonium]",17 µM
6,"CSCC[C@H](N)C(=O)N(O)C[C@H]1O[C@@H](Cn2cnc3c(N)ncnc32)[C@H](O)[C@@H]1O [(S)-1-{[(2R,3S,4R,5S)-5-(6-Amino-purin-9-ylmethyl)-3,4-dihydroxy-tetrahydro-furan-2-ylmethyl]-hydroxy-carbamoyl}-3-methylsulfanyl-propyl-ammonium]",26 µM

# Continued, values first:
row,IC50,SMILES
1,56 µM,"CSCC[C@H](N)C(=O)N(O)C[C@H]1O[C@@H](CCn2cnc3c(N)ncnc32)[C@H](O)[C@@H]1O [(S)-1-({(2R,3S,4R,5S)-5-[2-(6-Amino-purin-9-yl)-ethyl]-3,4-dihydroxy-tetrahydro-furan-2-ylmethyl}-hydroxy-carbamoyl)-3-methylsulfanyl-propyl-ammonium]"
2,23 µM,"CSCC[C@H](N)C(=O)N(O)C[C@H]1O[C@@H](CCn2cnc3c(NCc4ccccc4)ncnc32)[C@H](O)[C@@H]1O [(S)-1-({(2R,3S,4R,5S)-5-[2-(6-Benzylamino-purin-9-yl)-ethyl]-3,4-dihydroxy-tetrahydro-furan-2-ylmethyl}-hydroxy-carbamoyl)-3-methylsulfanyl-propyl-ammonium]"
3,3.6 µM,"CSCC[C@H](N)C(=O)OC[C@H]1O[C@@H](Cn2cnc3c(N)ncnc32)[C@H](O)[C@@H]1O [(S)-1-[(2R,3S,4R,5S)-5-(6-Amino-purin-9-ylmethyl)-3,4-dihydroxy-tetrahydro-furan-2-ylmethoxycarbonyl]-3-methylsulfanyl-propyl-ammonium]"
4,16.5 µM,"CSCC[C@H](N)C(=O)OC[C@H]1O[C@@H](Cn2cnc3c(NCc4ccccc4)ncnc32)[C@H](O)[C@@H]1O [(S)-1-[(2R,3S,4R,5S)-5-(6-Benzylamino-purin-9-ylmethyl)-3,4-dihydroxy-tetrahydro-furan-2-ylmethoxycarbonyl]-3-methylsulfanyl-propyl-ammonium]"
5,> 256 µM,"CSCC[C@H](N)C(=O)OC[C@H]1O[C@@H](CCn2nnc(-c3ccccc3)n2)[C@H](O)[C@@H]1O [(S)-1-{(2R,3S,4R,5S)-3,4-Dihydroxy-5-[2-(5-phenyl-tetrazol-2-yl)-ethyl]-tetrahydro-furan-2-ylmethoxycarbonyl}-3-methylsulfanyl-propyl-ammonium]"
6,8.3 µM,"CSCC[C@H](N)C(=O)OC[C@H]1O[C@@H](CCn2cnc3c(N)ncnc32)[C@H](O)[C@@H]1O [(S)-1-{(2R,3S,4R,5S)-5-[2-(6-Amino-purin-9-yl)-ethyl]-3,4-dihydroxy-tetrahydro-furan-2-ylmethoxycarbonyl}-3-methylsulfanyl-propyl-ammonium]"
7,33.2 µM,"CSCC[C@H](N)C(=O)OC[C@H]1O[C@@H](CCn2cnc3c(NCc4ccccc4)ncnc32)[C@H](O)[C@@H]1O [(S)-1-{(2R,3S,4R,5S)-5-[2-(6-Benzylamino-purin-9-yl)-ethyl]-3,4-dihydroxy-tetrahydro-furan-2-ylmethoxycarbonyl}-3-methylsulfanyl-propyl-ammonium]"
8,63 µM,"CSCC[C@H](N)C(=O)N(O)C[C@H]1O[C@@H](Cn2cnc3c(NCc4ccccc4)ncnc32)[C@H](O)[C@@H]1O [(S)-1-{[(2R,3S,4R,5S)-5-(6-Benzylamino-purin-9-ylmethyl)-3,4-dihydroxy-tetrahydro-furan-2-ylmethyl]-hydroxy-carbamoyl}-3-methylsulfanyl-propyl-ammonium]"

# Reference: BindingDB's records for doi:10.1016/s0960-894x(01)00095-6 (Seoul National University, 2001)
